Values belong to the compound of their own block, whether it stands above or below them.
Tests used:
[1] = target: VR1/TRPV1 receptor (Homo sapiens, UniProt Q8NER1); assay: IC50 (human) after pH stimulus; assay type: cell-based; settings: for IC50: table 4
[2] = target: T1, vanilloid receptor (VR1) (Homo sapiens, UniProt Q8NER1); assay: FLIPR Ca2+ influx assay on CHO K1 cells transfected with the VR1 gene (pharmacological method II); assay type: cell-based; settings: table 4; capsaicin; read-out: Ki (human) Cap.
T1 construct: expressed in transfected cells; host or cells: CHO K1 cells (ECACC), stably transfected
T1 sequence (Q8NER1 whole entry): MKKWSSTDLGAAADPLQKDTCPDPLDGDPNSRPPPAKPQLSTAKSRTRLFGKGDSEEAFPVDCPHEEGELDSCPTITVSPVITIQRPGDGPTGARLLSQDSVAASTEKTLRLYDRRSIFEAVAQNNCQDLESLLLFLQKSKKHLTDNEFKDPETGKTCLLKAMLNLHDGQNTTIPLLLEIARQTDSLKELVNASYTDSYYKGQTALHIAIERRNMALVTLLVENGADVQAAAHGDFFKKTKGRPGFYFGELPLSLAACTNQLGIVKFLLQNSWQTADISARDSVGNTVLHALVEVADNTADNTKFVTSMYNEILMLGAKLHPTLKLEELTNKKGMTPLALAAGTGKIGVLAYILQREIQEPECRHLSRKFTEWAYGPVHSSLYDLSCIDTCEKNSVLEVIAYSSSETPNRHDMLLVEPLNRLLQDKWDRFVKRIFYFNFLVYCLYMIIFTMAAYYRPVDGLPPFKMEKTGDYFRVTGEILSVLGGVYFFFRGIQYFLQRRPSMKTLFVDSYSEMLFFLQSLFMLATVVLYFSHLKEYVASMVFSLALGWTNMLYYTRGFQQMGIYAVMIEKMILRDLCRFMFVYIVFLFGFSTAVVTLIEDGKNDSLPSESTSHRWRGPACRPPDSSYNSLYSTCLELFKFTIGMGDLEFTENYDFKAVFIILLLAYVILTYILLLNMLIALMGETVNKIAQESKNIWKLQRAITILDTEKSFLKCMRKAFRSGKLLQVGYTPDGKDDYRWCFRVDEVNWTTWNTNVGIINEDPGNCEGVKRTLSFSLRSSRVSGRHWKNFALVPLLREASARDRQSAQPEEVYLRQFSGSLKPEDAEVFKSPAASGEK
Description: In this FLIPR assay, the influx of Ca^2+ is quantified with the assistance of a Ca^2+-sensitive dye (type Fluo-4, Molecular Probes Europe BV, Leiden, Netherlands) in a Fluorescent Imaging Plate Reader (FLIPR, Molecular Devices, Sunnyvale, USA) as described below.
II. Functional Investigations on the Vanilloid Receptor (VR1)
The agonistic or antagonistic action of the substances to be investigated on the vanilloid receptor (VR1) may also be determined with the following assay. According to this assay, the influx of Ca^2+ through the channel is quantified with the assistance of a Ca^2+-sensitive dye (type Fluo-4, Molecular Probes Europe BV, Leiden, Netherlands) in a Fluorescent Imaging Plate Reader (FLIPR, Molecular Devices, Sunnyvale, USA).
Chinese hamster ovary cells (CHO K1 cells, European Collection of Cell Cultures (ECACC), Great Britain) are stably transfected with the VR1 gene. For functional investigations, these cells are plated out onto poly-D-lysine-coated, black 96 well plates with a clear bottom (BD Biosciences, Heidelberg, Germany) at a density of 25,000 cells/well. The cells are incubated overnight at 37° C. and 5% CO2 in a culture medium (Ham's Nutrient Mixture F12, 10 vol. % FCS (foetal calf serum), 18 μg/mL L-proline). On the following day, the cells are incubated with Fluo-4 (Fluo-4 2 μM, Pluronic F127 0.01 vol. %, Molecular Probes in HBSS (Hank's buffered saline solution), Gibco Invitrogen GmbH, Karlsruhe, Germany) for 30 minutes at 37° C. The plates are then washed 3 times with HBSS buffer and, after a further 15 minutes' incubation at room temperature, used for […] measurement in the FLIPR. […] Quantification proceeds by measuring the highest fluorescence intensity (FC, fluorescence counts) over time.
The FLIPR protocol comprises 2 additions of substance. The substances to be tested (10 μM) are firstly pipetted onto the cells and Ca^2+ influx is compared with the control (capsaicin 10 μM) (% activation relative to the Ca^2+ signal after addition of 10 μM of capsaicin). After 5 minutes' incubation, 100 nM of capsaicin are added and the influx of Ca^2+ is again determined.
The percentage inhibition in comparison with the maximum achievable inhibition with 10 μM capsaicin is calculated.

[3] = read-out: inhibition in percent, IC50 (human) after pH stimulus
[4] = @ 1 μM, ne = no effect, read-out: inhibition in percent, IC50 (human) after pH stimulus

Chain of VR1/TRPV1 receptor (Q8NER1 whole entry): as above

inhibition at 0.01 µM [1, 3]: 12% | inhibition at 0.1 µM [1, 3]: 55%
Structure (SMILES): CC1CCCN(c2nc(C(F)(F)F)ccc2CNC(=O)C(C)c2ccc(NS(C)(=O)=O)c(F)c2)C1 (stereo not shown) [Compound 282]

inhibition at 0.01 µM [1, 3]: 11% | inhibition at 0.1 µM [1, 3]: 43%
Structure (SMILES): CC(C(=O)NCc1ccc(C(F)(F)F)nc1N1CCCCC1C)c1ccc(NS(C)(=O)=O)c(F)c1 (stereo not shown) [Compound 283]

Ki [2]: 0.8 nM | IC50 [1]: 38 nM
Structure (SMILES): COc1ccc(-c2cc(C(F)(F)F)ccc2CNC(=O)C(C)c2ccc(NS(C)(=O)=O)c(F)c2)cc1 (stereo not shown) [Example 321, 2-(3-fluoro-4-methylsulfonamido-phenyl)-N-(4′-methoxy-5-trifluoromethyl-biphenyl-2-ylmethyl)-propionamide]

Ki [2]: 1.1 nM | IC50 [1]: 36 nM
Structure (SMILES): CC(C(=O)NCc1ccc(C(F)(F)F)cc1-c1ccc(C(C)(C)C)cc1)c1ccc(NS(C)(=O)=O)c(F)c1 (stereo not shown) [Example 320, N-(4′-tert-butyl-5-trifluoromethyl-biphenyl-2-ylmethyl)-2-(3-fluoro-4-methylsulfonamido-phenyl)-propionamide]

Ki [2]: 1.4 nM | IC50 [1]: 129 nM
Structure (SMILES): CC1CCN(c2nc(C(F)(F)F)ccc2CNC(=S)C(C)c2ccc(NS(C)(=O)=O)c(F)c2)CC1 (stereo not shown) [Example 293, 2-(3-fluoro-4-methylsulfonamido-phenyl)-N-(4-methyl-6′-trifluoromethyl-3,4,5,6-tetrahydro-2H-[1,2′]bipyridinyl-3′-ylmethyl)-thiopropionamide]

Ki [2]: 0.7 nM | IC50 [1]: 66 nM
Structure (SMILES): CC(C(=O)NCc1ccc(C(F)(F)F)nc1/C=C/C1CCCCC1)c1ccc(NS(C)(=O)=O)c(F)c1 (stereo not shown) [Example 346, N-[2-(2-cyclohexyl-vinyl)-6-trifluoromethyl-pyridin-3-ylmethyl]-2-(3-fluoro-4-methylsulfonamido-phenyl)-propionamide]

inhibition at 1 µM [1, 4]: 15%
Structure (SMILES): CC(C(=O)NCc1ccc(C(F)(F)F)nc1N1CCN(C)CC1)c1ccc(NS(C)(=O)=O)c(F)c1 (stereo not shown) [Compound 134]

Ki [2]: 3 nM
Structure (SMILES): CC1CC(C)CC(Oc2nc(C(F)(F)F)ccc2CNC(=O)C(C)c2ccc(NS(C)(=O)=O)c(F)c2)C1 (stereo not shown) [Example 377, N-((2-(3,5-dimethylcyclohexyloxy)-6-(trifluoromethyl)pyridin-3-yl)methyl)-2-(3-fluoro-4-(methylsulfonamido)phenyl)propanamide]

Ki [2]: 2.5 nM | IC50 [1]: 179 nM
Structure (SMILES): CCCN(CCC)c1nc(C(C)(C)C)ccc1CNC(=O)C(C)c1ccc(NS(C)(=O)=O)c(F)c1 (stereo not shown) [Example 297, N-(6-tert-butyl-2-dipropylamino-pyridin-3-ylmethyl)-2-(3-fluoro-4-methylsulfonamido-phenyl)-propionamide]

inhibition at 0.01 µM [1, 3]: 6% | inhibition at 0.1 µM [1, 3]: 48%
Structure (SMILES): Cc1cc(C(C)C(=O)NCc2ccc(C(F)(F)F)nc2N2CCC(C)CC2)ccc1NS(C)(=O)=O (stereo not shown) [Compound 196]

inhibition at 1 µM [1, 4]: 27%
Structure (SMILES): CCCCC(CCCC)Oc1nc(C(F)(F)F)ccc1CNC(=O)C(C)c1ccc(NS(C)(=O)=O)c(F)c1 (stereo not shown) [Compound 352]

inhibition in percent, IC50 (human) after pH stimulus ([1]; @ 1 μM, ne = no effect): ne @ 1 μM
Structure (SMILES): CC(C(=O)NCc1c(CO)cc(C(C)(C)C)nc1OC1CCCC1)c1ccc(NS(C)(=O)=O)c(F)c1 (stereo not shown) [Example 261, N-(6-tert-butyl-2-cyclopentyloxy-4-hydroxymethyl-pyridin-3-ylmethyl)-2-(3-fluoro-4-methylsulfonamido-phenyl)-propionamide]

inhibition at 0.1 µM [1, 3]: 31%
Structure (SMILES): CC(C)OC1CCN(c2nc(C(F)(F)F)ccc2CNC(=O)C(C)c2ccc(NS(C)(=O)=O)c(F)c2)CC1 (stereo not shown) [Compound 162]

inhibition at 0.1 µM [1, 3]: 8.5%
Structure (SMILES): CC(C(=O)NCc1ccc(C(F)(F)F)nc1N1CCN(C2CCCCC2)CC1)c1ccc(NS(C)(=O)=O)c(F)c1 (stereo not shown) [Compound 260]

IC50 [1]: 33 nM
Structure (SMILES): CC(C(=O)NCc1ccc(C(F)(F)F)cc1-c1ccc(F)c(Cl)c1)c1ccc(NS(C)(=O)=O)c(F)c1 (stereo not shown) [Example 324, N-(3′-chloro-4′-fluoro-5-trifluoromethyl-biphenyl-2-ylmethyl)-2-(3-fluoro-4-methylsulfonamido-phenyl)-propionamide]

inhibition at 1 µM [1, 4]: 8% | inhibition at 5 µM [1, 3]: 32%
Structure (SMILES): COc1ccc(-c2nc(C(F)(F)F)ccc2CNC(=O)C(C)c2ccc(NS(C)(=O)=O)c(F)c2)cc1OC (stereo not shown) [Compound 326]

inhibition at 0.01 µM [1, 3]: 4% | inhibition at 0.1 µM [1, 3]: 52%
Structure (SMILES): CC(C(=O)NCc1ccc(C(F)(F)F)nc1CCC(C)(C)C)c1ccc(NS(C)(=O)=O)c(F)c1 (stereo not shown) [Compound 263]

Ki [2]: 44 nM
Structure (SMILES): CCOC(=O)c1cc(CNC(=O)C(C)c2ccc(NS(C)(=O)=O)c(F)c2)c(N2CCC(C)CC2)cc1C(F)(F)F (stereo not shown) [Example 351, 5-{[2-(3-fluoro-4-methylsulfonamido-phenyl)-propionylamino]-methyl}-4-(4-methyl-piperidin-1-yl)-2-trifluoromethyl-benzoic acid ethyl ester]

inhibition at 0.01 µM [1, 3]: 3%
Structure (SMILES): CC(C(=O)NCc1ccc(C(F)(F)F)cc1OC1CCCCC1)c1ccc(NS(C)(=O)=O)c(F)c1 (stereo not shown) [Compound 238]

inhibition at 0.05 µM ([1]; @ 0.05 μM, read-out: inhibition in percent, IC50 (human) after pH stimulus): 18%
Structure (SMILES): CC(C)COc1nc(C(C)(C)C)ccc1CNC(=O)C(C)c1ccc(NS(C)(=O)=O)c(F)c1 (stereo not shown) [Compound 353]

inhibition at 0.1 µM [1, 3]: 0%
Structure (SMILES): CC(C(=O)NCc1ccc(C(F)(F)F)nc1N1CCC(CN(C)C)(c2ccccc2)CC1)c1ccc(NS(C)(=O)=O)c(F)c1 (stereo not shown) [Compound 259]

inhibition at 1 µM [1, 4]: 4%
Structure (SMILES): CC(C(=O)NCc1ccc(C(F)(F)F)cc1N1CCN(C2CCCCC2)CC1)c1ccc(NS(C)(=O)=O)c(F)c1 (stereo not shown) [Compound 319]

inhibition at 0.1 µM [1, 3]: 18% | inhibition at 1 µM [1, 4]: 26% | inhibition at 5 µM [1, 3]: 22%
Structure (SMILES): CCCN(CCC)c1nc(C(F)(F)F)ccc1CNC(=O)C(C)c1ccc(NS(C)(=O)=O)c(C)c1 (stereo not shown) [Compound 331]

inhibition at 1 µM [1, 4]: 26%
Structure (SMILES): CC(C(=O)NCc1ccc(C(F)(F)F)nc1Nc1ccc(F)cc1)c1ccc(NS(C)(=O)=O)c(F)c1 (stereo not shown) [Compound 112]

inhibition at 0.1 µM [1, 3]: 2%
Structure (SMILES): CCCCCCOc1nc(C(C)(C)C)ccc1CNC(=O)C(C)c1ccc(NS(C)(=O)=O)c(F)c1 (stereo not shown) [Compound 236]

Ki [2]: 1.6 nM
Structure (SMILES): CCC(C(=O)NCc1ccc(C(F)(F)F)nc1N1CCC(C)CC1)c1ccc(NS(C)(=O)=O)c(F)c1 (stereo not shown) [Example 347, 2-(3-fluoro-4-methylsulfonamido-phenyl)-N-(4-methyl-6′-trifluoromethyl-3,4,5,6-tetrahydro-2H-[1,2′]bipyridinyl-3′-ylmethyl)-butyramide]

inhibition at 0.1 µM [1, 3]: 25% | inhibition at 1 µM [1, 4]: 54%
Structure (SMILES): CC(C(=O)NCc1ccc(C(F)(F)F)cc1-c1cccc(Cl)c1)c1ccc(NS(C)(=O)=O)c(F)c1 (stereo not shown) [Example 322, N-(3′-chloro-5-trifluoromethyl-biphenyl-2-ylmethyl)-2-(3-fluoro-4 methylsulfonamido-phenyl)-propionamide]

inhibition at 1 µM [1, 4]: 63%
Structure (SMILES): CC(C(=O)NCc1ccc(C(F)(F)F)cc1N1CCN(c2ccc(C(F)(F)F)cc2)CC1)c1ccc(NS(C)(=O)=O)c(F)c1 (stereo not shown) [Compound 248]

IC50 [1]: 30 nM
Structure (SMILES): CCCCCOc1nc(C(F)(F)F)ccc1CNC(=O)C(C)c1ccc(NS(C)(=O)=O)c(F)c1 (stereo not shown) [Example 375, 2-(3-fluoro-4-(methylsulfonamido)phenyl)-N-((2-(pentyloxy)-6-(trifluoromethyl)pyridin-3-yl)methyl)propanamide]

inhibition at 0.01 µM [1, 3]: 15% | inhibition at 0.1 µM [1, 3]: 43%
Structure (SMILES): CCCCOc1nc(C(F)(F)F)ccc1CNC(=O)C(C)c1ccc(NS(C)(=O)=O)c(C)c1 (stereo not shown) [Compound 256]

inhibition at 0.01 µM [1, 3]: 11% | inhibition at 0.1 µM [1, 3]: 63%
Structure (SMILES): CCCCCCOc1nc(C(F)(F)F)ccc1CNC(=O)C(C)c1ccc(NS(C)(=O)=O)c(C)c1 (stereo not shown) [Compound 257]

— patent US8710233B2 (Gruenenthal GmbH, priority 2005, dated 2014)
